According to patent US20090022803A1, “Oral Formulations For Delivery of Catecholic Butanes Including Ndga Compounds” (priority 2005, published 2009):

Assay: Human Phase 0 three-way crossover microdose pharmacokinetic study of 14C-labelled M4N, AMS
Format: in vivo
Conditions: for F: bioavailability of oral dose compared to IV dose; for Tmax: intravenous dose
Procedure: This study was designed to assess the absorption of M4N when administered to humans as a sub-therapeutic dose either as a single oral dose under fed and fasted conditions or a single intravenous dose (Regimens A-C, respectively, in Table 24). The study was a three-way crossover study design in a target population of healthy male subjects and consisted of three study periods of approximately 35 hours duration, each separated by a minimum period of at least 7 days between dosing. During the course of each study period, pharmacokinetic blood samples were taken at specified time points after dosing and urine was collected over pre-defined time intervals. The subjects were able to leave the clinical unit after the completion of study specific procedures at 24 hours post-dose.
In this study, M4N was administered to humans in a 100 μg quantity. M4N was lightly-labelled with ^14C (3.3 kBq per 100 μg) and administered to healthy volunteers. Each oral administration of M4N consisted of 0.1 mg of ^14C labeled M4N and 376.8 mg of glycerol monooleate in a size 0 gelatin capsule. The single intravenous infusion of M4N consisted of 0.1 mg/mL ^14C labelled M4N, 30% (w/v) HP-β-CD, and 25% (v/v) PEG diluted with water to 1 mL for bolus injection. Following collection of blood and urine from each subject, samples were analyzed for ^14C content using Accelerator Mass Spectrometry (AMS) to determine the maximum concentration of M4N (Cmax) that occurred at time Tmax, the overall area under the curve (AUC) that corresponds to the overall absorption of M4N at the times of testing (AUC0-t) and overall (AUC0-∞), the terminal half-life (T1/2) of each sample and the relative and overall bioavailability (Frel and F), of the oral dose of M4N compared to the IV dose of M4N. The baseline levels of M4N were corrected for any residual M4N remaining in the subjects following the periods between dosing so as not to inflate the levels of M4N for any subsequent dosing.

[1] = human, 100 μg, total 14C plasma
[2] = human, oral and intravenous 100 μg

SMILES: COc1ccc(C[C@@H](C)[C@@H](C)Cc2ccc(OC)c(OC)c2)cc1OC [Formulation M4N, meso-1,4-bis(3,4-dimethoxyphenyl)-2,3-dimethylbutane]
- F (Regimen A (oral, fed): 100 μg single oral dose following a high fat breakfast, 14C, baseline corrected, mean ± SD): 91.2 ± 19.1%
- F (Regimen B (oral, fasted): 100 μg single oral dose following an overnight fast, 14C, baseline corrected, mean ± SD): 122.1 ± 14.5%
- AUC0-t oral dose in fasted subjects compared with the intravenous dose [1]: slightly higher
- AUC0-t oral dose in fed subjects compared with the intravenous dose [1]: slightly lower
- apparent absorption following oral administration (human, fed and fasted state): very high
- Tmax (human, eight of the ten subjects (first sampling time)): 4.8 min
- Tmax (human, two subjects): 10.2 min
- AUC0-t in fed subjects compared with fasted subjects (human, oral 100 μg): generally lower
- Tmax, generally (human, oral 100 μg, fasted subjects): 60 min
- adverse events [2]: no serious or severe adverse events
- tolerability [2]: well tolerated
- vital signs or ECGs [2]: No clinically significant changes
- Frel (relative bioavailability, Regimen A (oral, fed): 100 μg single oral dose following a high fat breakfast, 14C, baseline corrected, mean ± SD): 75.1 ± 16.2%
